Source: patent US20240101599A1, “PEPTIDE, CELL GROWTH PROMOTER, PROTEIN PRODUCTION PROMOTER, CULTURE MEDIUM, CELL GROWTH METHOD USING PEPTIDE, AND PROTEIN PRODUCTION METHOD USING PEPTIDE” (Maruhachi Muramatsu, Inc., priority 2020, published 2024)
Read-outs that look alike come from different tables or passages of the source. Peptide text beside a SMILES is read from it.

What was measured:
[1] = test system: CHO DP-12; conditions: 5 days; for Viable cell count: n=3; for Amount of protein produced: n=3, ELISA
Experimental: A cell suspension prepared such that CHO DP-12 (ATCC, Cat. No. CRL-12445) was at 2×10^4 cells/mL was seeded in a 24-well plate at 1×10^4 cells/well (500 μL) and cultured in an incubator at 37° C. and 5% CO2 for 24 hours. As a culture medium, a DMEM basal medium in which 200 nM of methotrexate and 2 μg/mL of insulin were blended in a DMEM culture medium (Gibco) containing 10% FBS was used.
After removing the culture medium from each well and washing with the DMEM basal medium (500 μL), each peptide solution (500 μL) was dispensed to each well (total 500 μL/well) to perform culture for 5 days.
After replacing each culture medium with an evaluation medium of the following test section, culture was performed in an incubator at 37° C. and 5% CO2 for 5 days.
• DMEM basal medium • AGK (1 mM)+DMEM basal medium • AGK (2 mM)+DMEM basal medium • Medium supplemented with vitamins and nucleic acids (DMEM basal medium+vitamin+nucleic acid) • AGK (1 mM)+medium supplemented with vitamins and nucleic acids • AGK (2 mM)+medium supplemented with vitamins and nucleic acids
After 5 days of culture, the total amount of the culture medium in each well of the 24-well plate was recovered, a centrifugation operation (5,000 rpm, for 5 minutes) was performed, and the supernatant was separately recovered to measure the amount of produced protein by ELISA.
The cells adhered to the wells after recovering the culture medium were detached by trypsin treatment and suspended again in the DMEM basal medium containing 10% FBS to measure the viable cell count and the viability by a trypan blue staining method using a cell counter.

[2] = test system: CHO DP-12; experiment: Cell growth test and protein production test when peptide was added to total synthesis medium; format: cell-based; conditions: for Viability, Average / Viable cell count, Average / Amount of protein produced, Average: average n=3; for Viability, Average / Viable cell count, Average / Amount of protein produced, Average / Viability, 1 / Viable cell count, 1 / Amount of protein produced, 1 / Viability, 2 / Viable cell count, 2 / Amount of protein produced, 2 / Viability, 3 / Viable cell count, 3 / Amount of protein produced, 3: ASF104 basal medium, 5 days; for Amount of protein produced, Average / Amount of protein produced, 1 / Amount of protein produced, 2 / Amount of protein produced, 3: ELISA; for Viability, 1 / Viable cell count, 1 / Amount of protein produced, 1: replicate 1; for Viability, 2 / Viable cell count, 2 / Amount of protein produced, 2: replicate 2; for Viability, 3 / Viable cell count, 3 / Amount of protein produced, 3: replicate 3
Experimental: A peptide having the sequence of Gly-Glu-Lys (GEK) was synthesized to prepare peptide solutions at the concentrations of 0 mM, 2.6 mM, 5.1 mM, 10 mM, 20.5 mM, and 41 mM, and an amount of 1/10 of the total culture medium volume was added to each well immediately before the cell culture test such that final concentrations were 0 mM, 0.26 mM, 0.51 mM, 1.0 mM, 2.05 mM, and 4.1 mM, respectively. In the present test, CHO DP-12 (ATCC, Cat. No. CRL-12445) acclimated to an ASF104 basal medium in which 200 nM of methotrexate and 2 μg/mL of insulin were blended in an ASF104 culture medium (Ajinomoto Co., Inc.), which is a total synthesis medium for CHO, was used. A cell suspension prepared such that a cell concentration was 4×10^4 cells/mL was seeded in a 24-well plate at 450 μL/well and cultured in an incubator at 37° C. and 5% CO2 for 24 hours. As a culture medium, an ASF104 basal medium in which 200 nM of methotrexate and 2 μg/mL of insulin were blended in an ASF104 culture medium (Ajinomoto Co., Inc.), which is a total synthesis medium for CHO, was used.
After 24 hours, 50 μL of the prepared peptide solution was added to each well to perform culture for 5 days. The cells were recovered after culture to count the viable cell count.
• ASF104 basal medium • GEK (0.26 mM)+ASF104 basal medium • GEK (0.51 mM)+ASF104 basal medium • GEK (1.0 mM)+ASF104 basal medium • GEK (2.05 mM)+ASF104 basal medium • GEK (4.1 mM)+ASF104 basal medium
100 μL of the culture medium supernatant was collected in a 1.5 mL tube to quantitatively determine the amount of protein produced. The supernatant was diluted to measure the amount of protein produced by ELISA.
In order to analyze the cells, the culture medium in each well was recovered in a 1.5 mL tube to be rinsed with 200 μL of PBS, and the rinsed liquid was also recovered in the same 1.5 mL tube. Thereafter, 100 μL of 0.25% trypsin/EDTA was added to perform incubation for 1 minute. 100 μL of a trypsin inhibitor was added to recover in the same 1.5 mL tube. After rinsing with 200 μL of PBS to recover the rinsed liquid in the same 1.5 mL tube, a centrifugation operation was performed. Suspension was performed in 100 μL of PBS to measure the viable cell count and the cell viability by a trypan blue staining method using a cell counter.
The above preparation, culture, and measurement were performed with n=3. Table 28 and FIG. 27 show the viable cell count in each peptide solution, Table 29 and FIG. 28 show the cell viability in each peptide solution, and Table 30 and FIG. 29 show the amount of protein produced.

[3] = 1 mM AGK + medium supplemented with vitamins and nucleic acids
[4] = 2 mM AGK + medium supplemented with vitamins and nucleic acids

C[C@H](N)C(=O)NCC(=O)N[C@@H](CCCCN)C(=O)O [AGK, Ala-Gly-Lys] (H-Ala-Gly-Lys-OH; N-terminus and C-terminus assumed)
Viable cell count ([1]; 1 mM AGK + DMEM basal medium): 11.97 ×10^4cells/well | Amount of protein produced ([1]; 1 mM AGK + DMEM basal medium): 7.5 mg/L | Viable cell count [1, 3]: 34.65 ×10^4cells/well | Amount of protein produced [1, 3]: 15.74 mg/L | Viable cell count ([1]; 2 mM AGK + DMEM basal medium): 11.73 ×10^4cells/well | Amount of protein produced ([1]; 2 mM AGK + DMEM basal medium): 7.4 mg/L | Viable cell count [1, 4]: 47.07 ×10^4cells/well | Amount of protein produced [1, 4]: 14.34 mg/L

NCCCC[C@H](NC(=O)[C@H](CCC(=O)O)NC(=O)CN)C(=O)O [GEK, Gly-Glu-Lys] (H-Gly-Glu-Lys-OH; N-terminus and C-terminus assumed)
Viability, Average ([2]; 0.26 mM GEK): 97.0% | Viable cell count, Average ([2]; 0.26 mM GEK): 1.6 ×10^6 cells/well | Amount of protein produced, Average ([2]; 0.26 mM GEK): 12.5 mg/L | Viability, 1 ([2]; 0.26 mM GEK): 96% | Viable cell count, 1 ([2]; 0.26 mM GEK): 1.6 ×10^6 cells/well | Amount of protein produced, 1 ([2]; 0.26 mM GEK): 12.2 mg/L | Viability, 2 ([2]; 0.26 mM GEK): 99% | Viable cell count, 2 ([2]; 0.26 mM GEK): 1.5 ×10^6 cells/well | Amount of protein produced, 2 ([2]; 0.26 mM GEK): 12.6 mg/L | Viability, 3 ([2]; 0.26 mM GEK): 96% | Viable cell count, 3 ([2]; 0.26 mM GEK): 1.6 ×10^6 cells/well | Amount of protein produced, 3 ([2]; 0.26 mM GEK): 12.7 mg/L | Viability, Average ([2]; 0.51 mM GEK): 96.7% | Viable cell count, Average ([2]; 0.51 mM GEK): 1.6 ×10^6 cells/well | Amount of protein produced, Average ([2]; 0.51 mM GEK): 12.9 mg/L | Viability, 1 ([2]; 0.51 mM GEK): 95% | Viable cell count, 1 ([2]; 0.51 mM GEK): 1.5 ×10^6 cells/well | Amount of protein produced, 1 ([2]; 0.51 mM GEK): 12.8 mg/L | Viability, 2 ([2]; 0.51 mM GEK): 98% | Viable cell count, 2 ([2]; 0.51 mM GEK): 1.7 ×10^6 cells/well | Amount of protein produced, 2 ([2]; 0.51 mM GEK): 13.2 mg/L | Viability, 3 ([2]; 0.51 mM GEK): 97% | Viable cell count, 3 ([2]; 0.51 mM GEK): 1.6 ×10^6 cells/well | Amount of protein produced, 3 ([2]; 0.51 mM GEK): 12.6 mg/L | Viability, Average ([2]; 1.0 mM GEK): 96.7% | Viable cell count, Average ([2]; 1.0 mM GEK): 1.5 ×10^6 cells/well | Amount of protein produced, Average ([2]; 1.0 mM GEK): 13.1 mg/L | Viability, 1 ([2]; 1.0 mM GEK): 97% | Viable cell count, 1 ([2]; 1.0 mM GEK): 1.3 ×10^6 cells/well | Amount of protein produced, 1 ([2]; 1.0 mM GEK): 12.4 mg/L | Viability, 2 ([2]; 1.0 mM GEK): 97% | Viable cell count, 2 ([2]; 1.0 mM GEK): 1.8 ×10^6 cells/well | Amount of protein produced, 2 ([2]; 1.0 mM GEK): 12.8 mg/L | Viability, 3 ([2]; 1.0 mM GEK): 96% | Viable cell count, 3 ([2]; 1.0 mM GEK): 1.4 ×10^6 cells/well | Amount of protein produced, 3 ([2]; 1.0 mM GEK): 14.1 mg/L | Viability, Average ([2]; 2.05 mM GEK): 96.7% | Viable cell count, Average ([2]; 2.05 mM GEK): 1.9 ×10^6 cells/well | Amount of protein produced, Average ([2]; 2.05 mM GEK): 17.0 mg/L | Viability, 1 ([2]; 2.05 mM GEK): 96% | Viable cell count, 1 ([2]; 2.05 mM GEK): 1.9 ×10^6 cells/well | Amount of protein produced, 1 ([2]; 2.05 mM GEK): 17.5 mg/L | Viability, 2 ([2]; 2.05 mM GEK): 96% | Viable cell count, 2 ([2]; 2.05 mM GEK): 2.2 ×10^6 cells/well | Amount of protein produced, 2 ([2]; 2.05 mM GEK): 17.7 mg/L | Viability, 3 ([2]; 2.05 mM GEK): 98% | Viable cell count, 3 ([2]; 2.05 mM GEK): 1.4 ×10^6 cells/well | Amount of protein produced, 3 ([2]; 2.05 mM GEK): 15.6 mg/L | Viability, Average ([2]; 4.1 mM GEK): 97.0% | Viable cell count, Average ([2]; 4.1 mM GEK): 1.7 ×10^6 cells/well | Amount of protein produced, Average ([2]; 4.1 mM GEK): 13.3 mg/L | Viability, 1 ([2]; 4.1 mM GEK): 97% | Viable cell count, 1 ([2]; 4.1 mM GEK): 1.8 ×10^6 cells/well | Amount of protein produced, 1 ([2]; 4.1 mM GEK): 13.9 mg/L | Viability, 2 ([2]; 4.1 mM GEK): 98% | Viable cell count, 2 ([2]; 4.1 mM GEK): 1.8 ×10^6 cells/well | Amount of protein produced, 2 ([2]; 4.1 mM GEK): 13.2 mg/L | Viability, 3 ([2]; 4.1 mM GEK): 96% | Viable cell count, 3 ([2]; 4.1 mM GEK): 1.5 ×10^6 cells/well | Amount of protein produced, 3 ([2]; 4.1 mM GEK): 12.8 mg/L | amount of protein produced as compared to the basal medium (total synthesis medium) ([2]; in words): the amount of protein produced also tended to increase | cell viability as compared to the basal medium (total synthesis medium) ([2]; in words): the cell viability was similarly high | viable cell count as compared to the basal medium (total synthesis medium) ([2]; in words): the viable cell count increased
